The subject of one test is Klebsiella pneumoniae. The test is described as follows: microbe, parasite or virus in culture. The conditions noted are these: ATCC 700603, 18 h, ASSAY_TEST Inhibition of Bacterial Growth, detection method Absorption (OD600), MEDIA CAMHB, plate type 384well, NBS, CORNING #3640.
A further test has as its system Escherichia coli. The test is described as follows: microbe, parasite or virus in culture. The settings on record: ATCC 25922, 18 h, ASSAY_TEST Inhibition of Bacterial Growth, detection method Absorption (OD600), MEDIA CAMHB, plate type 384well, NBS, CORNING #3640.
Another test concerns Acinetobacter baumannii. The test is described as follows: microbe, parasite or virus in culture. The conditions noted are these: ATCC 19606, 18 h, ASSAY_TEST Inhibition of Bacterial Growth, detection method Absorption (OD600), MEDIA CAMHB, plate type 384well, NBS, CORNING #3640.
The subject of the next test is Staphylococcus aureus. The test is described as follows: microbe, parasite or virus in culture. The settings on record: ATCC 43300, 18 h, ASSAY_TEST Inhibition of Bacterial Growth, detection method Absorption (OD600), MEDIA CAMHB, plate type 384well, NBS, CORNING #3640.
For another test, the system named is Pseudomonas aeruginosa. The test is described as follows: microbe, parasite or virus in culture. The conditions noted are these: ATCC 27853, 18 h, ASSAY_TEST Inhibition of Bacterial Growth, detection method Absorption (OD600), MEDIA CAMHB, plate type 384well, NBS, CORNING #3640.
The test system of a further test is Candida albicans. The test is described as follows: microbe, parasite or virus in culture. The settings on record: ATCC 90028, ASSAY_TEST Inhibition of Fungal Growth, detection method Absorption (OD530), plate type 384well, NBS, CORNING #3640.
The subject of a further test is HEK293. The test is described as follows: cells. Format: functional. The settings on record: Homo sapiens, ATCC CRL1573, HEK293; ASSAY_TEST Inhibition of Cell Viability; detection method Resazurin; Fluorescence (ex560/em590); MEDIA DMEM with 10% FBS; plate type 384well; TC; CORNING #3712; time 18 hr. For orientation: The colour change of resazurin is a common sign of viable cells or microbes.

Values after ≈ are worked out from the molar mass of the structure shown. A value given as a limit tells only on which side of the number the result lay.

Description for Acinetobacter baumannii: Antibacterial activity against Acinetobacter baumannii ATCC 19606 (CO-ADD:GN_034); MIC in CAMBH media using NBS plates, by OD600
Description for Candida albicans: Antifungal activity against Candida albicans ATCC 90028 (CO-ADD:FG_001); MIC in YNB media using NBS plates, by OD630
Description for Cryptococcus neoformans: Antifungal activity against Cryptococcus neoformans H99 ATCC 208821 (CO-ADD:FG_002); MIC in YNB media using NBS plates, by Resazurin OD(600-570)
Description for Escherichia coli: Antibacterial activity against Escherichia coli ATCC 25922 (CO-ADD:GN_001); MIC in CAMBH media using NBS plates, by OD(600)
Description for Klebsiella pneumoniae: Antibacterial activity against Klebsiella pneumoniae MDR ATCC 70063 (CO-ADD:GN_003); MIC in CAMBH media using NBS plates, by OD(600)
Description for Pseudomonas aeruginosa: Antibacterial activity against Pseudomonas aeruginosa ATCC 27853 (CO-ADD:GN_042); MIC in CAMBH media using NBS plates, by OD(600)
Description for Staphylococcus aureus: Antibacterial activity against Staphylococcus aureus MRSA ATCC 43300 (CO-ADD:GP_020); MIC in CAMBH media, using NBS plates, by OD(600)

The CC50 is the concentration at which the toxic effect on the cells reaches its halfway point. Regarding `O=C(Nc1nnc(-c2ccc(Cl)cc2)o1)c1cccc(C(F)(F)F)c1`, the MIC in the test with Klebsiella pneumoniae, in the test on Escherichia coli, with Acinetobacter baumannii, in the test with Staphylococcus aureus, in the test on Pseudomonas aeruginosa and against Cryptococcus neoformans was greater than 10 µM throughout. Moreover, the MIC in the test with Candida albicans is greater than 10 µM. Further, the CC50 in the test on HEK293 was greater than 10 µM.
Take `O=C(COc1cccc(F)c1)Nc1nc(-c2ccccn2)cs1`: the MIC in the test with Klebsiella pneumoniae, with Escherichia coli, against Acinetobacter baumannii, in the test on Staphylococcus aureus, against Pseudomonas aeruginosa and in the test on Cryptococcus neoformans was greater than 10 µM each time. Moreover, the MIC against Candida albicans was greater than 10 µM. This molecule also showed a CC50 with HEK293 greater than 10 µM.
Regarding `Brc1cncc(-c2cc(NCCCn3ccnc3)nc(-c3ccccc3)n2)c1`, the MIC in the test on Klebsiella pneumoniae, against Escherichia coli, in the test on Acinetobacter baumannii, against Staphylococcus aureus, against Pseudomonas aeruginosa and against Cryptococcus neoformans was greater than 10 µM in each case. The molecule further yielded an MIC against Candida albicans greater than 10 µM. Further, in the test on HEK293, the CC50 is greater than 10 µM.
For the molecule `CCc1c(C)nc(-n2nc(C)cc2NC(=O)c2ccccc2SC)[nH]c1=O`, the MIC in the test on Klebsiella pneumoniae, against Escherichia coli, with Acinetobacter baumannii, against Staphylococcus aureus, against Pseudomonas aeruginosa and with Cryptococcus neoformans was greater than 10 µM throughout. In the test on Candida albicans, this molecule showed an MIC greater than 10 µM. In the test on HEK293, this molecule showed a CC50 greater than 10 µM.
Turning to `O=C(Nc1nnc(-c2ccc(Cl)s2)o1)c1ccc(Cl)s1`, the MIC in the test with Klebsiella pneumoniae was greater than 10 µM; with Escherichia coli it was greater than 10 µM; against Acinetobacter baumannii it was greater than 10 µM; in the test with Staphylococcus aureus, 10 µM (≈ 3.46 µg/mL); in the test on Pseudomonas aeruginosa, greater than 10 µM; against Cryptococcus neoformans it was greater than 10 µM. In the test on Candida albicans, this molecule gave an MIC greater than 10 µM. Also, the CC50 with HEK293 is greater than 10 µM.
As to `COc1cccc(-c2nc3c(N4CCCC4)cccc3n2CC2CCCN2)n1` (configuration not stated), the MIC with Klebsiella pneumoniae is greater than 10 µM; against Escherichia coli, greater than 10 µM; in the test with Acinetobacter baumannii it was greater than 10 µM; with Staphylococcus aureus it was 10 µM (≈ 3.77 µg/mL); with Pseudomonas aeruginosa, greater than 10 µM; in the test on Cryptococcus neoformans, greater than 10 µM. In addition, the MIC against Candida albicans was greater than 10 µM. Moreover, in the test with HEK293, the CC50 is greater than 10 µM.
Take `O=C(c1ccco1)N(CCCn1ccnc1)c1nc2c(Cl)cccc2s1`: the MIC in the test with Klebsiella pneumoniae, with Escherichia coli, against Acinetobacter baumannii, against Staphylococcus aureus, against Pseudomonas aeruginosa and against Cryptococcus neoformans was greater than 10 µM each time. Further, in the test on Candida albicans, the MIC is greater than 10 µM. In addition, the CC50 with HEK293 is greater than 10 µM.
Regarding `CC(=O)N1CCN(c2ccc(Oc3ccc(Cl)cc3O)cc2)CC1`, the MIC in the test with Klebsiella pneumoniae, with Escherichia coli, in the test on Acinetobacter baumannii, in the test on Staphylococcus aureus, against Pseudomonas aeruginosa and against Cryptococcus neoformans was greater than 10 µM throughout. In the test on Candida albicans, this molecule came in with an MIC greater than 10 µM. The molecule also registered a CC50 in the test on HEK293 greater than 10 µM.
Turning to `O=C([C@@H](c1ccc(Cl)cc1)c1cccnc1)N1CCN(c2ccc(C(F)(F)F)cc2)CC1`, the MIC with Klebsiella pneumoniae, in the test on Escherichia coli, with Acinetobacter baumannii, against Staphylococcus aureus, against Pseudomonas aeruginosa and with Cryptococcus neoformans was greater than 10 µM in each case. Moreover, in the test on Candida albicans, the MIC was greater than 10 µM. The same molecule gave a CC50 in the test on HEK293 greater than 10 µM.
As for `CCOC(=O)NC(=O)c1ccsc1NC(=O)c1nc2ccccc2s1`, the MIC against Klebsiella pneumoniae, against Escherichia coli, against Acinetobacter baumannii, against Staphylococcus aureus, against Pseudomonas aeruginosa and against Cryptococcus neoformans was greater than 10 µM in each case. This molecule also yielded an MIC with Candida albicans greater than 10 µM. This molecule gave a CC50 with HEK293 greater than 10 µM.
In the case of `Cc1nn2c(=O)c3c([nH]c2c1-c1ccc(Cl)cc1)CCCC3`, the MIC against Klebsiella pneumoniae, against Escherichia coli, against Acinetobacter baumannii, in the test with Staphylococcus aureus, with Pseudomonas aeruginosa and in the test on Cryptococcus neoformans was greater than 10 µM in each case. The molecule further gave an MIC against Candida albicans greater than 10 µM. Further, the 50% cytotoxic concentration (CC50) in the test with HEK293 is greater than 10 µM.
Consider `CC(c1cc(Cl)cc(Cl)c1)N(C)c1ncc2c(N)nc(N)nc2n1` (configuration not stated), for which the MIC was greater than 10 µM against Klebsiella pneumoniae; greater than 10 µM in the test with Escherichia coli; greater than 10 µM against Acinetobacter baumannii; 10 µM (≈ 3.64 µg/mL) in the test on Staphylococcus aureus; greater than 10 µM with Pseudomonas aeruginosa; greater than 10 µM with Cryptococcus neoformans. In addition, the MIC in the test with Candida albicans is greater than 10 µM. This molecule displayed a CC50 with HEK293 greater than 10 µM.
For the molecule `NC(CC(=O)c1ccc(Cl)cc1Cl)C(Cl)(Cl)Cl` (configuration not stated), the MIC with Klebsiella pneumoniae, against Escherichia coli, with Acinetobacter baumannii, in the test on Staphylococcus aureus, in the test with Pseudomonas aeruginosa and against Cryptococcus neoformans was greater than 10 µM each time. In the test on Candida albicans, this molecule came in with an MIC greater than 10 µM. Besides, the CC50 in the test with HEK293 is greater than 10 µM.
Consider `O=C1O[C@@H](CO)CN1c1cc(F)c(C2=CCN(Cc3ccccc3)CC2)c(F)c1`, for which the MIC against Klebsiella pneumoniae, with Escherichia coli, with Acinetobacter baumannii, against Staphylococcus aureus, with Pseudomonas aeruginosa and against Cryptococcus neoformans was greater than 10 µM in each case. This molecule also returned an MIC against Candida albicans greater than 10 µM. In the test with HEK293, this molecule displayed a CC50 greater than 10 µM.
Turning to `COc1cccc(-n2nnnc2S(=O)(=O)Cc2ccccc2)c1`, the MIC against Klebsiella pneumoniae, in the test with Escherichia coli, with Acinetobacter baumannii, against Staphylococcus aureus, with Pseudomonas aeruginosa and with Cryptococcus neoformans was greater than 10 µM in each case. Further, in the test with Candida albicans, the MIC is greater than 10 µM. The CC50 in the test on HEK293 is greater than 10 µM.
Turning to `c1csc(-c2cnc3sc(NCC4CCOCC4)nn23)c1`, the MIC with Klebsiella pneumoniae, with Escherichia coli, in the test with Acinetobacter baumannii, against Staphylococcus aureus, with Pseudomonas aeruginosa and in the test with Cryptococcus neoformans was greater than 10 µM each time. The molecule also displayed an MIC against Candida albicans greater than 10 µM. Also, in the test on HEK293, the CC50 was greater than 10 µM.
For the molecule `CCCn1c(NC(=O)c2ccc3ccccc3n2)nc2ccccc21`, the MIC against Klebsiella pneumoniae, in the test on Escherichia coli, with Acinetobacter baumannii, in the test with Staphylococcus aureus, against Pseudomonas aeruginosa and against Cryptococcus neoformans was greater than 10 µM throughout. In the test on Candida albicans, this molecule registered an MIC greater than 10 µM. Further, the CC50 with HEK293 was greater than 10 µM.
As for `NCCN(C(=O)c1ccc(Cl)cc1Cl)c1ccc(OCc2ccc(Cl)cc2)cc1`, the MIC is greater than 10 µM in the test on Klebsiella pneumoniae; greater than 10 µM against Escherichia coli; greater than 10 µM in the test on Acinetobacter baumannii; 10 µM (≈ 4.5 µg/mL) with Staphylococcus aureus; greater than 10 µM with Pseudomonas aeruginosa; greater than 10 µM in the test on Cryptococcus neoformans. In addition, the MIC against Candida albicans is greater than 10 µM. Besides, in the test with HEK293, the CC50 was greater than 10 µM.
For the molecule `CO/N=C(\C(=O)OC)c1ccccc1CO/N=C(\C)c1cccc(C(F)(F)F)c1`, the MIC against Klebsiella pneumoniae, with Escherichia coli, in the test on Acinetobacter baumannii, against Staphylococcus aureus, against Pseudomonas aeruginosa and with Cryptococcus neoformans was greater than 10 µM throughout. The same molecule returned an MIC against Candida albicans greater than 10 µM. The molecule further came in with a CC50 in the test on HEK293 greater than 10 µM.
As for `O=C(Nc1ccccc1)c1ccc(-c2cc3ccncc3cc2OC2CCNCC2)s1`, the MIC with Klebsiella pneumoniae, in the test on Escherichia coli, against Acinetobacter baumannii, against Staphylococcus aureus, against Pseudomonas aeruginosa and in the test with Cryptococcus neoformans was greater than 10 µM each time. Moreover, in the test on Candida albicans, the MIC was greater than 10 µM. In the test on HEK293, the CC50 was greater than 10 µM.
Regarding `Cc1nc(-c2ccccn2)nc(N(C)CCc2ccccc2)c1Cl`, the MIC in the test with Klebsiella pneumoniae, in the test with Escherichia coli, against Acinetobacter baumannii, against Staphylococcus aureus, in the test with Pseudomonas aeruginosa and against Cryptococcus neoformans was greater than 10 µM throughout. The MIC with Candida albicans was greater than 10 µM. Also, in the test on HEK293, the CC50 is greater than 10 µM.
As to `Cc1nc(-c2ccccn2)nc(N2CCC(Cc3ccccc3)C2)c1Cl` (configuration not stated), the MIC against Klebsiella pneumoniae was greater than 10 µM; with Escherichia coli, greater than 10 µM; in the test with Acinetobacter baumannii, greater than 10 µM; against Staphylococcus aureus, greater than 10 µM; in the test on Pseudomonas aeruginosa, greater than 10 µM; against Cryptococcus neoformans, no more than 0.0781 µM. This molecule came in with an MIC with Candida albicans of 0.156 µM (≈ 0.057 µg/mL). The molecule also came in with a CC50 in the test with HEK293 greater than 10 µM.
With `COc1cc(C2=NCCN2)cc2cc(-c3ccc(C4=NCCN4)cc3)oc12`, the MIC in the test on Klebsiella pneumoniae, in the test with Escherichia coli, against Acinetobacter baumannii, in the test with Staphylococcus aureus, against Pseudomonas aeruginosa and in the test on Cryptococcus neoformans was greater than 10 µM in each case. The molecule further registered an MIC against Candida albicans greater than 10 µM. The molecule further gave a CC50 in the test with HEK293 greater than 10 µM.
Consider `COc1ccc(OC)c(NCc2ccc3nc(N)nc(N)c3c2Cl)c1`, for which the MIC with Klebsiella pneumoniae is 10 µM (≈ 3.6 µg/mL); against Escherichia coli, 2.5 µM (≈ 0.9 µg/mL); in the test with Acinetobacter baumannii, greater than 10 µM; against Staphylococcus aureus, 0.625 µM (≈ 0.225 µg/mL); with Pseudomonas aeruginosa, 2.5 µM (≈ 0.9 µg/mL); in the test on Cryptococcus neoformans it was greater than 10 µM. In the test with Candida albicans, this molecule registered an MIC greater than 10 µM. For the same molecule, the CC50 in the test on HEK293 was greater than 10 µM.

(Values after ChEMBL document CHEMBL4513149, “CO-ADD screening of MMV (CH) - MMV compounds” (2021).)
